Publication PMC7093416, “Selective USP7 inhibition elicits cancer cell killing through a p53-dependent mechanism” (Scientific Reports, 2020)
Where “and” joins values, the source holds several entries; their conditions need not be identical. Equal values may be shown once.

System: panel of 484 cancer cell lines
Assay: PRISM cancer cell line profiling, 5 days
Type: cell-based
Design: Viability: scale not given here; AUC: unit not given beside the values
Procedure: Cancer cell line profiling was performed using the Broad’s PRISM platform. Cell treatment and data analysis were performed as described in Yu et al[42]. Raw Luminex signal was converted to AUC values for each cell line as described. The resulting AUC profile for each compound was modeled against DepMap using the limma package in R[71]. Because hotspot mutation analysis was performed against DepMap, TP53 annotations in Fig. 6c,d are directly from DepMap.

[1] = HEC59_ENDOMETRIUM, pert_dose 6.10E-04
[2] = HEC108_ENDOMETRIUM, pert_dose 6.10E-04
[3] = HEC151_ENDOMETRIUM, pert_dose 6.10E-04
[4] = HEP3B217_LIVER, pert_dose 6.10E-04
[5] = HEYA8_OVARY, pert_dose 6.10E-04
[6] = HPAC_PANCREAS, pert_dose 6.10E-04
[7] = HS294T_SKIN, pert_dose 6.10E-04
[8] = HS618T_LUNG, pert_dose 6.10E-04
[9] = HS729_SOFT_TISSUE, pert_dose 6.10E-04
[10] = HS766T_PANCREAS, pert_dose 6.10E-04
[11] = HS852T_SKIN, pert_dose 6.10E-04
[12] = HS939T_SKIN, pert_dose 6.10E-04
[13] = HSC2_UPPER_AERODIGESTIVE_TRACT, pert_dose 6.10E-04
[14] = HSC3_UPPER_AERODIGESTIVE_TRACT, pert_dose 6.10E-04
[15] = HT29_LARGE_INTESTINE, pert_dose 6.10E-04
[16] = HT55_LARGE_INTESTINE, pert_dose 6.10E-04
[17] = HUCCT1_BILIARY_TRACT, pert_dose 6.10E-04
[18] = HUH28_BILIARY_TRACT, pert_dose 6.10E-04
[19] = IGROV1_OVARY, pert_dose 6.10E-04
[20] = IPC298_SKIN, pert_dose 6.10E-04

In the case of `COc1ccc(C2=N[C@@H](c3ccc(Cl)cc3)[C@@H](c3ccc(Cl)cc3)N2C(=O)N2CCNC(=O)C2)c(OC(C)C)c1` [Nutlin-3A], the AUC (HEC59_ENDOMETRIUM) is reported as 1.062, the “MFI HEC59_ENDOMETRIUM” value [1] is reported as 10418.5 and 8852 and 7376 and 10636 and 7469 and the Viability [1] is reported as 1.236. For the same molecule, the AUC (HEC108_ENDOMETRIUM) was 0.9813, the “MFI HEC108_ENDOMETRIUM” value [2] was 22169.5 and 21680 and 21571 and 20999 and 14974 and the Viability [2] was 1.448. The AUC (HEC151_ENDOMETRIUM) was 0.8923, the “MFI HEC151_ENDOMETRIUM” value [3] was 15512 and 13471 and 16551 and 13036 and 13374 and the Viability [3] was 1.158. It also gave an AUC (HEC251_ENDOMETRIUM) of 1.051, an AUC (HEC265_ENDOMETRIUM) of 0.862 and a Viability (HEC265_ENDOMETRIUM, pert_dose 6.10E-04) of 1.3422. For the same molecule, the AUC (HEP3B217_LIVER) was 1.168, the “MFI HEP3B217_LIVER” value [4] was 4895 and 4355 and 5398 and 5541 and 7085.5 and the Viability [4] was 1.05. The AUC (HEYA8_OVARY) was 0.8732, the “MFI HEYA8_OVARY” value [5] was 14485.5 and 11701.5 and 12129 and 10947 and 12823 and the Viability [5] was 1.321. For the same molecule, the AUC (HGC27_STOMACH) was 1.116, the AUC (HLF_LIVER) was 1.153 and the AUC (HMC18_BREAST) was 1.214. The “MFI HMC18_BREAST” value (HMC18_BREAST, pert_dose 6.10E-04) was 29555.5 and 31726 and 28535 and 27291 and 25031.5, the AUC (HOS_BONE) was 1.0473 and the “MFI HOS_BONE” value (HOS_BONE, pert_dose 6.10E-04) was 25115 and 17203.5 and 23311.5 and 23304 and 24478. For the same molecule, the Viability (HOS_BONE, pert_dose 6.10E-04) was 1.257, the AUC (HPAC_PANCREAS) was 1.491 and the “MFI HPAC_PANCREAS” value [6] was 14040 and 13836.5 and 12138 and 14386 and 13656. For the same molecule, the Viability [6] was 1.593, the AUC (HS294T_SKIN) was 0.8649 and the “MFI HS294T_SKIN” value [7] was 15509 and 11081.5 and 12624.5 and 16477 and 13812.5. For the same molecule, the Viability [7] was 1.3841, the AUC (HS618T_LUNG) was 1.119 and the “MFI HS618T_LUNG” value [8] was 423.5 and 422.5 and 583 and 491 and 486.5. For the same molecule, the Viability [8] was 1.131, the AUC (HS729_SOFT_TISSUE) was 1.053 and the “MFI HS729_SOFT_TISSUE” value [9] was 5267.5 and 3467.5 and 6111 and 4197 and 4598. The Viability [9] was 1.333, the AUC (HS766T_PANCREAS) was 1.165 and the “MFI HS766T_PANCREAS” value [10] was 2873 and 4107.5 and 4713 and 3779 and 3684. The Viability [10] was 0.8691, the AUC (HS852T_SKIN) was 0.95 and the “MFI HS852T_SKIN” value [11] was 952 and 665.5 and 666.5 and 706 and 781.5. The Viability [11] was 1.404, the AUC (HS939T_SKIN) was 0.8847 and the “MFI HS939T_SKIN” value [12] was 1676 and 1756.5 and 2260 and 2253 and 2240. For the same molecule, the Viability [12] was 0.6815, the AUC (HS944T_SKIN) was 1.082 and the AUC (HSC2_UPPER_AERODIGESTIVE_TRACT) was 0.986. The “MFI HSC2_UPPER_AERODIGESTIVE_TRACT” value [13] was 16228 and 12093.5 and 8568 and 11207.5 and 10414, the Viability [13] was 1.409 and the AUC (HSC3_UPPER_AERODIGESTIVE_TRACT) was 1.141. The “MFI HSC3_UPPER_AERODIGESTIVE_TRACT” value [14] was 19468 and 21785 and 24258 and 21275 and 18776, the Viability [14] was 1.0036 and the AUC (HT29_LARGE_INTESTINE) was 1.34. For the same molecule, the “MFI HT29_LARGE_INTESTINE” value [15] was 15605 and 16428.5 and 18104 and 14824 and 17298, the Viability [15] was 1.215 and the AUC (HT55_LARGE_INTESTINE) was 1.149. The “MFI HT55_LARGE_INTESTINE” value [16] was 18343 and 20659.5 and 20881.5 and 14879 and 18638, the Viability [16] was 1.081 and the AUC (HT144_SKIN) was 0.8778. The AUC (HT1080_SOFT_TISSUE) was 0.7842, the AUC (HT1376_URINARY_TRACT) was 1.193 and the AUC (HUCCT1_BILIARY_TRACT) was 1.095. The “MFI HUCCT1_BILIARY_TRACT” value [17] was 24976 and 22701 and 21301.5 and 24041 and 22645, the Viability [17] was 1.1214 and the AUC (HUH6_LIVER) was 1.038. For the same molecule, the “MFI HUH6_LIVER” value (HUH6_LIVER, pert_dose 6.10E-04) was 2954 and 3148.5 and 3422 and 2906 and 2817, the Viability (HUH6_LIVER, pert_dose 6.10E-04) was 1.443 and the AUC (HUH7_LIVER) was 1.414. For the same molecule, the “MFI HUH7_LIVER” value (HUH7_LIVER, pert_dose 6.10E-04) was 2519 and 3872.5 and 2817 and 4186 and 2978, the Viability (HUH7_LIVER, pert_dose 6.10E-04) was 1.154 and the AUC (HUH28_BILIARY_TRACT) was 1.075. The “MFI HUH28_BILIARY_TRACT” value [18] was 10419.5 and 14552 and 18877 and 11771 and 16814, the Viability [18] was 1.064 and the AUC (HUPT3_PANCREAS) was 1.108. For the same molecule, the “MFI HUPT3_PANCREAS” value (HUPT3_PANCREAS, pert_dose 6.10E-04) was 6399 and 3235.5 and 3378 and 3719 and 5662, the AUC (IALM_LUNG) was 1.093 and the “MFI IALM_LUNG” value (IALM_LUNG, pert_dose 6.10E-04) was 15214 and 17539 and 16640 and 15373 and 14718. The Viability (IALM_LUNG, pert_dose 6.10E-04) was 0.9343, the AUC (IGR1_SKIN) was 0.9397 and the “MFI IGR1_SKIN” value (IGR1_SKIN, pert_dose 6.10E-04) was 9685 and 12749 and 10992 and 10674 and 10187.5. It also gave a Viability (IGR1_SKIN, pert_dose 6.10E-04) of 1.096, an AUC (IGR37_SKIN) of 1.088 and a Viability (IGR37_SKIN, pert_dose 6.10E-04) of 0.7539. For the same molecule, the AUC (IGROV1_OVARY) was 0.9652, the “MFI IGROV1_OVARY” value [19] was 16733 and 14037 and 9860 and 14121 and 11292 and the Viability [19] was 1.232. The AUC (IM95_STOMACH) was 0.8918, the AUC (IPC298_SKIN) was 1.102 and the “MFI IPC298_SKIN” value [20] was 24999 and 31830 and 20542 and 28455.5 and 32422. The Viability [20] was 1.1324 and the AUC (ISHIKAWAHERAKLIO02ER_ENDOMETRIUM) was 1.148.
